Data from patent US20130039871A1, “AQUEOUS COMPOSITION CONTAINED IN CONTAINER” (KAO CORPORATION, priority 2010, published 2013).

Experiment: Test 1-3: water evaporation rate of aqueous composition in open dish
Type: physicochemical
Details: Test 2
Method: Five grams of each of samples 1 to 15 having components shown in Table 1 were placed in respective dishes having an opening area of 13.85 cm^2 and were left at a humidity of 30% and a temperature of 30° C. Changes in weight of each sample were measured 1, 3, 5, 7, 12, 18, and 24 hr later. The slope of the changes in weight, the n of nX+m (X represents time (hr)) calculated by a least-squares method, was defined as the water evaporation rate (unit: mg/h), and the absolute value thereof was plotted. The test was conducted three times for each sample, and the average value thereof was determined. Note that a lower water evaporation rate means higher inhibition of evaporation.
Changes in weight of samples 15 to 25 shown in Table 3 were measured under the same conditions as in Test 1, and water evaporation rates were determined.
Changes in weight of samples of Examples 1 to 7 and Comparative Examples 1 to 7 having components shown below were measured under the same conditions as in Test 1, and water evaporation rates were determined. In addition, viscosities at 25° C. were measured with a B-type viscometer (Vismetron viscometer: model VS-A1, Rotor No. 1, 12 rotations, 30 sec).

polyoxyethylene(2) behenyl ether [polyoxyethylene behenyl ether]
Amount showing a high water-evaporation inhibiting effect: ≥ 0.2 % by mass
Amount showing a water-evaporation inhibiting effect: ≥ 0.1 % by mass
